Assay results from US5912351A, “Anhydrous 1,4-Dihydropyridines and salts thereof” (Recordati, S.A. Chemical and Pharmaceutical Company, priority 1995, dated 1999).

What was measured:
Format in all cases: cell-based
rat myocytes = test: Arterial myocyte migration, micro chemotaxis chamber with fibrinogen; conditions: 5 hours, fibrinogen 600 μg/ml, FIG. 2
Method: Migration of rat myocytes was examined using a 48-well micro chemotaxis chamber (Neuro-Probe, USA). Freshly trypsinized myocytes prepared according to the procedure in Example 4A were suspended in a medium supplemented with 5% fetal calf serum (assay medium). The lower wells, containing 27 μl of the assay medium that included fibrinogen (600 μg/ml) as chemotactic agent, were covered with a polyvinylpyrrolidone-free polycarbonate filter ([…]). Fifty μl of the cell suspension (1×10^6 cells/ml) were placed in the upper compartment with the tested compounds. Incubation was carried out for 5 hours at 37° C. in an atmosphere of 95% air and 5% CO2.
After incubation the filter was removed from the chamber and non-migrated cells were scraped from the upper surface, and the filters washed with phosphate buffered saline three times. The filters were stained with Diff-Quik (Merz-Dade AG, Switzerland). The number of myocytes per 100×high power field that had migrated to the lower surface of the filters was determined microscopically. Six high power fields were counted per sample and the results were averaged.

[1] = system: mouse monocyte-macrophage cells (ATCC TIB 67 J774A.1); test: Cell-mediated oxidation of LDL (MDA, thiobarbituric acid assay), J774A.1 cells; conditions: 30 μM, after 10 hours incubation, FIG. 7
Method: The antioxidant capacity of the compounds of the invention, on cell-mediated oxidation, was evaluated by incubating LDL and mouse monocyte-macrophage cells (ATCC TIB 67 J774A.1) with CuSO4 solution in the presence of […], lercanidipine or one of its enantiomers at several concentrations. The inhibition of formation of aldehydic breakdown products, i.e., secondary metabolites of lipid peroxidation, malonic dialdehyde (MDA), was assessed by detection of dialdehyde formation using the thiobarbituric acid assay (A. N. Hanna et al., Biochem. Pharmacol. 45: 753 (1993)).
The antioxidant capacity was evaluated by incubating ethylene-diaminetetraacetic acid free-LDL under sterile conditions with 5 μM Cu++ (100 μg Apo B/ml) in the presence of J774A.1 cells. Oxidation was stopped after 22 hours incubation by addition of butylated hydroxytoluene to the medium (final concentration 40 μM) dissolved in ethanol. […] Malonic dialdehyde equivalents were calculated using 1,1,3,3-tetramethoxypropane as the standard.
In experiments 9A and 9B, the cell-mediated oxidation effects of lercanidipine were investigated after incubation for 22 hours. […] Samples were withdrawn from the incubation medium and the oxidation product, MDA, measured as described above.

EAhy-926 = test: Cell-mediated oxidation of LDL (MDA), EAhy-926 cells; conditions: 10 to 100 μM, 22 hours, FIG. 6
Method: The antioxidant capacity was evaluated by incubating ethylene-diaminetetraacetic acid free-LDL under sterile conditions with 5 μM Cu++ (100 μg Apo B/ml) in the presence of J774A.1 cells. Oxidation was stopped after 22 hours incubation by addition of butylated hydroxytoluene to the medium (final concentration 40 μM) dissolved in ethanol. To the incubated sample (0.250 ml), was added trichloroacetic acid (0.750 ml, 0.20% w/v) followed by of thiobarbituric acid (0.750 ml, 0.67% w/v). The samples were heated at 100° C. for 20 min, followed by cooling and centrifugation. Malonic dialdehyde equivalents were calculated using 1,1,3,3-tetramethoxypropane as the standard.
Following the procedure in Example 9A, the effects of lercanidipine on cell-mediated oxidation were studied with a different cell line which shares many of the properties of endothelial cells (EAhy-926). (The cells were provided by: Prof. A. Catapano, Pharmacology Dept., Universita Statale--Milano.) (These or other endothelial cells can be obtained as described by C-J. S. Edgall et al., Proc. Nat. AcAd. Sci., 80: 3734-3737, (1983); and Gimbrone, M., Prog. Hemostasis Thromb., 3: 1-28, (1976)). The cells were treated with lercanidipine at a concentration of from about 10 to about 100 μM.

Row | Compound | inhibition of myocytes migration (rat myocytes) | inhibition of lipid oxidation (MDA) over time [1] | LDL oxidation (nanomoles of MDA produced) (EAhy-926)
1 | COC(=O)C1=C(C)NC(C)=C(C(=O)OC(C)(C)CN(C)CCC(c2ccccc2)c2ccccc2)[C@@H]1c1cccc([N+](=O)[O-])c1 [(R)-LE, (R)-(-)METHYL 1,1-N-TRIMETHYL-N-(3,3-DIPHENYLPROPYL)-2-AMINOETHYL 1,4-DIHYDRO-2,6-DIMETHYL-4-(3-NITROPHENYL)PYRIDINE-3,5-DICARBOXYLATE] | most pronounced effect | – | –
2 | COC(=O)C1=C(C)NC(C)=C(C(=O)OC(C)(C)CN(C)CCC(c2ccccc2)c2ccccc2)C1c1cccc([N+](=O)[O-])c1 (racemic) [LE, methyl 1,1,N-trimethyl-N-(3,3-diphenylpropyl)-2-aminoethyl 1,4-dihydro-2,6-dimethyl-4-(3-nitrophenyl)-pyridine-3,5-dicarboxylate] | – | very high inhibition of lipid oxidation | reduced the oxidation of LDL
